Data reported in patent US8835426B2, “Cyclic urea and carbamate inhibitors of 11β-hydroxysteroid dehydrogenase 1” (Vitae Pharmaceuticals, Inc., priority 2007, dated 2014).

Biological target: T1, purified 11β-HSD1 (recombinant, expressed in E. coli) (Homo sapiens, UniProt P28845)
T1 construct: made in house; host or cells: E. coli
Test: Inhibition of purified 11β-HSD1, Scintillation Proximity Assay
Type: biochemical
Settings: recombinant enzyme, 3H cortisone, NADPH, room temperature
Description: The inhibition of purified 11β-HSD1 by compounds of Formula I was measured as follows using a Scintillation Proximity Assay. All reactions were carried out at room temperature in 96 well flexible Microbeta reaction plates. The assay begins by adding 1 microliter of a 0.1 mM solution of a compound of Formula I in DMSO previously diluted in half-log increments (8 points) starting at 1 micromolar final concentration. To this dot was added 50 microliters of substrate solution (50 mM HEPES, pH 7.4, 100 mM KCl, 5 mM NaCl, 2 mM MgCl2 containing […] of ^3H cortisone, 1 mM NADPH). After a 10 minute incubation, 50 microliters of enzyme solution containing 20 nM recombinant 11β-HSD1 (expressed in E. coli, and affinity purified) was added, The reaction was incubated for 90 minutes, and stopped by adding 50 microliters of SPA bead mix (18-β-glycyrrhetinic acid, 10 micromolar final, 5 mg/ml protein A coated YSi SPA beads, and 1-microgram/ml alpha-cortisol antibody (East Coast Biologics). The plate shaken for 120 minutes, and the radioactivity corresponding to ^3H cortisol was measured on a Wallac Microbeta.

T1 sequence (P28845 whole entry): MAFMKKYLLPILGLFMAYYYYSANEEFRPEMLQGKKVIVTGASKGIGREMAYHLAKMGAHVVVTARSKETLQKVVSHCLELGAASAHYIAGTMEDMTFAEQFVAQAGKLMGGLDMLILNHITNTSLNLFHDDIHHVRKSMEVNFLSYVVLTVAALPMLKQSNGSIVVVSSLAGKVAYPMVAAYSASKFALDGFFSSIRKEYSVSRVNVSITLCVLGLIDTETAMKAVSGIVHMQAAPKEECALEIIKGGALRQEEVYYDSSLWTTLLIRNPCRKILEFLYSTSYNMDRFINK

IC50 [µM]	SMILES
> 1	CC(C)C[C@H]1CN(C2C3CC4CC2CC(O)(C4)C3)C(=O)O1 (single isomer, unassigned) [Example 13B]
0.05 to 1	O=C1O[C@@H](c2ccccc2)CN1CC1C2CC3CC(C2)CC1C3 (stereo partly drawn) [Example 11, (S)-3((2-adamantyl)methyl)-5-phenyloxazolidin-2-one]
0.05 to 1	O=C1OC(c2ccc(O)cc2)CN1CC12CC3CC(CC(C3)C1)C2 (stereo not drawn) [Example 17, 3-(1-adamantylmethyl)-5-(4-hydroxyphenyl)oxazolidin-2-one]
0.05 to 1	CC(C)CC1CCN(CC23CC4CC(CC(C4)C2)C3)C(=O)O1 (stereo not drawn) [Example 23, 3((1-adamantyl)methyl)-6-isobutyl-1,3-oxazinan-2-one]
0.05 to 1	O=C1N[C@H](CO)CN1CC12CC3CC(CC(C3)C1)C2 [Example 24, (S)-1-((1-adamantyl)methyl)-4-(hydroxymethyl)imidazolidin-2-one]
0.05 to 1	CC1CCN(CC23CC4CC(CC(C4)C2)C3)C(=O)O1 (stereo not drawn) [Example 26, 3-((1-adamantyl)methyl)-6-methyl-1,3-oxazinan-2-one]

Second part, the compound before the results:

SMILES	IC50 [µM]
O=C1OC(c2cccc(Cl)c2)CN1CC12CC3CC(CC(C3)C1)C2 (racemic) [Example 9, (±)-3((1-adamantyl)methyl)-5-(3-chlorophenyl)oxazolidin-2-one]	0.05 to 1
CC(C)C[C@H]1CN(C2C3CC4CC2CC(O)(C4)C3)C(=O)O1 (single isomer, unassigned) [Example 13A]	0.05 to 1
O=C1OC(C2CCC(O)CC2)CN1CC12CC3CC(CC(C3)C1)C2 (single isomer, unassigned) [Example 22B, 3-(1-adamantylmethyl)-5-(4-hydroxycyclohexyl)oxazolidin-2-one]	0.05 to 1
O=C1O[C@H](c2ccccc2)CN1CC12CC3CC(CC(C3)C1)C2 [Example 3, (R)-3((1-adamantyl)methyl)-5-phenyloxazolidin-2-one]	0.05 to 1
O=C1O[C@@H](Cc2ccccc2)CN1CC12CC3CC(CC(C3)C1)C2 [Example 6, (S)-5-benzyl-3-((1-adamantyl)methyl)oxazolidin-2-one]	0.05 to 1
CC[C@H]1CN(CC23CC4CC(CC(C4)C2)C3)C(=O)O1 [Example 10, (S)-3-((1-adamantyl)methyl)-5-ethyloxazolidin-2-one]	0.05 to 1
O=C1O[C@@H](c2ccccc2)CN1C1C2CC3CC(C2)CC1C3 (stereo partly drawn) [Example 14, (S)-3-(2-adamantyl)-5-phenyloxazolidin-2-one]	0.05 to 1
O=C1O[C@H](c2ccccc2)CN1C1C2CC3CC(C2)CC1C3 (stereo partly drawn) [Example 15, (R)-3-(2-adamantyl)-5-phenyloxazolidin-2-one]	0.05 to 1
O=C1O[C@@H](C2CCCCC2)CN1CC1C2CC3CC(C2)CC1C3 (stereo partly drawn) [Example 19, (S)-3-((2-adamantyl)methyl)-5-cyclohexyloxazolidin-2-one]	0.05 to 1
